Measurements published in patent US7452880B2, “Substituted pyrazolo [3,4-d] pyrimidines and methods of using the same” (priority 2004, dated 2008).

Key:
[1] = target: T1, p38 MAP kinase (Homo sapiens, UniProt Q16539); experiment: p38 (MAP) kinase in vitro assay (transfer of γ-33P-phosphate from ATP to Myelin Basic Protein); format: biochemical; conditions: phosphorylated recombinant p38 MAP kinase, MBP substrate, γ-33P-ATP, 30° C.
T1 construct: made in house; host or cells: E. coli (co-expressed with SEK-1 and MEKK to obtain the phosphorylated form)
T1 sequence (Q16539 whole entry): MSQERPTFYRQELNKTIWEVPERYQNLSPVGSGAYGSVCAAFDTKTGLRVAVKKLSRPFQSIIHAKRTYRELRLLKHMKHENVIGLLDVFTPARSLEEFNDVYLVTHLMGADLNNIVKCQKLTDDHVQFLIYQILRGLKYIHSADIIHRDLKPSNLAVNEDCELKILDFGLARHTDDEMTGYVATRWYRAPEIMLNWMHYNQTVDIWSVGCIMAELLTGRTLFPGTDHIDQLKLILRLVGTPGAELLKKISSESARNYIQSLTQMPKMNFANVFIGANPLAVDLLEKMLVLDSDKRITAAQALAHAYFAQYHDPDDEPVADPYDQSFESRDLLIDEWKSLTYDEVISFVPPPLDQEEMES
Description: This example illustrates a p38 (MAP) kinase in vitro assay useful for evaluating the compounds of the invention.
The p38 MAP kinase inhibitory activity of compounds of this invention in vitro was determined by measuring the transfer of the γ-phosphate from γ-^33P-ATP by p-38 kinase to Myelin Basic Protein (MBP), using a minor modification of the method described in Ahn, et al., J. Biol. Chem. 266:4220-4227 (1991).
The phosphorylated form of the recombinant p38 MAP kinase was co-expressed with SEK-1 and MEKK in E. Coli (see, Khokhlatchev, et al., J. Biol. Chem. 272:11057-11062 (1997)) and then purified by affinity chromatography using a Nickel column.
The phosphorylated p38 MAP kinase was diluted in kinase buffer (20 mM 3-(N-morpholino)propanesulfonic acid, pH 7.2, 25 mM β-glycerol phosphate, 5 mM ethylene glycol-bis(beta-aminoethyl ether)-N,N,N′,N′-tetraacetic acid, 1 mM sodium ortho-vanadate, 1 mM dithiothreitol, 40 mM magnesium chloride). Test compound dissolved in DMSO or only DMSO (control) was added and the samples were incubated for 10 min at 30° C. The kinase reaction was initiated by the addition of a substrate cocktail containing MBP and γ-^33P-ATP. […] The phosphorylated MBP was then separated from the residual γ-^33P-ATP using a phosphocellulose membrane (Millipore, Bedfrod, Mass.) and quantitated using a scintillation counter (Packard, Meriden, Conn.).

melting point [°C]	IC50 [1] [µM]	SMILES
221.3 to 223.1	–	Clc1ccccc1Oc1ncc2c(-c3cccs3)n[nH]c2n1 [Compound 22, 6-(2-Chloro-phenoxy)-3-thiophen-2-yl-1H-pyrazolo[3,4-d]pyrimidine]
–	~0.01	Fc1ccc(Oc2ncc3c(-c4ccccc4Cl)n[nH]c3n2)c(F)c1 [Compound 3, 3-(2-Chloro-phenyl)-6-(2,4-difluoro-phenoxy)-1H-pyrazolo[3,4-d]pyrimidine]
143.2 to 144.9	–	COc1ccccc1-c1n[nH]c2cc(Oc3ccc(F)cc3F)cnc12 [Compound 98, 6-(2,4-Difluoro-phenoxy)-3-(2-methoxy-phenyl)-1H-pyrazolo[4,3-b]pyridine]
177.6 to 183.2	–	COc1ccc(F)c(-c2n[nH]c3nc(Oc4ccc(F)cc4F)ncc23)c1 [Compound 64, 6-(2,4-Difluoro-phenoxy)-3-(2-fluoro-5-methoxy-phenyl)-1H-pyrazolo[3,4-d]pyrimidine]
55.3 to 56.1	–	FC(F)(F)c1ccccc1Oc1ncc2c(-c3ccccc3Cl)n[nH]c2n1 [Compound 13, 3-(2-Chloro-phenyl)-6-(2-trifluoromethyl-phenoxy)-1H-pyrazolo[3,4-d]pyrimidine]
